Patent US4211772A, “Benzopyran glycoside acetals and ketals” (Laboratoires Sarget, priority 1977, dated 1980)
≈ marks a conversion by molar mass, not a printed value. Where two headings read alike, the source gives them in different places.

How the values were obtained:
[1] = tested on: carragenin edema; test: Anti-inflammatory activity: carragenin edema test; assay type: in vivo; conditions: Rattus norvegicus, ip, substantially alkaline pH solution, read-out: % inhibition of carragenin edema; for inhibition in vivo at 150 mg/kg: 150 mg/kg i.p.; for inhibition in vivo at 200 mg/kg: 200 mg/kg i.p.; for inhibition in vivo at 300 mg/kg: 300 mg/kg i.p.; for inhibition in vivo at 100 mg/kg: 100 mg/kg i.p.
Method: Anti-inflammatory activity
This was determined by the carragenin edema test using male Wistar EOPS rats. Inflammation was induced by the injection of 0.1 ml of a suspension of 5% carragenin in physiological serum into the muscular bundle of the metatarsal region of the posterior paw of the animal. The test substance was administered i.p. in neutralized solution at the same time as the carragenin.
Edema was measured by plethysmometry at different times after the administration of the carragenin.
Tables IV and V show the percentages of inhibition as a function of time and of dosage for certain compounds of the present invention.
The above results were obtained for solutions of substantially alkaline
The reference experiments were performed using physiological serum brough
to a pH approximately the same as the pH of the solutions to be tested.

[2] = tested on: capillary permeability; test: Capillaroprotecting effects: capillary permeability; assay type: in vivo, conventional male Wistar rats
Method: (§1) Capillaroprotecting effects
The capillary permeability was determined by the method of Charlier et al, Arch. Inter. Physiol.

[3] = i.p. toxicity in Swiss EOPS mice, mortality at 14 days; conditions: mouse, in vivo, ip, DMSO solution at 1/2, read-out: percentages of mortality at the end of 14 days
Method: The i.p. toxicities of certain compounds of the present invention were determined using male and female Swiss EOPS mice for administrations in DMSO solution at 1/2 under a volume of P/100.

[4] = tested on: capillary resistance; test: Capillaroprotecting effects: capillary resistance; assay type: in vivo, male OFA EOPS rats
Method: as §1
The capillary resistance was determined by a variant of the method of Charlier et al, Arch. Inter. Physiol.

[5] = target: T1, Aldose Reductase (Bos taurus, UniProt P16116); test: Inhibition of aldose reductase in vitro (enzyme from beef eye lenses, glyceraldehyde substrate); assay type: biochemical; conditions: in DMF solution, read-out: percentages of inhibition (aldose reductase); for inhibition at 100 µM: 10^-4 mole/l; for inhibition at 10 µM: 10^-5 mole/l
T1 construct: The enzyme is extracted from beef eye lenses; from tissue; host or cells: beef eye lenses
Description: Inhibition of Aldose Reductase In Vitro
The reoxidation of NADPH coupled to the enzymatic reaction was followed spectrophotometrically at 340 nm.

[6] = Solubilities in water; assay type: physicochemical; conditions: water; read-out: Solubilities in water

Row | Compound | inhibition in vivo at 200 mg/kg ([1]; 1/2 h) | inhibition in vivo at 300 mg/kg ([1]; 1/2 h) | inhibition in vivo at 200 mg/kg ([1]; 1 h, 1 h 1/2) | inhibition in vivo at 200 mg/kg ([1]; 1 h, 1 h) | inhibition in vivo at 300 mg/kg ([1]; 1 h, 1 h 1/2) | inhibition in vivo at 300 mg/kg ([1]; 1 h, 1 h) | inhibition in vivo at 200 mg/kg ([1]; 2 h, 2 h) | inhibition in vivo at 300 mg/kg ([1]; 2 h, 2 h) | inhibition in vivo at 200 mg/kg ([1]; 3 h, 3 h) | inhibition in vivo at 300 mg/kg ([1]; 3 h, 3 h) | inhibition in vivo at 200 mg/kg ([1]; 4 h, 4 h) | inhibition in vivo at 300 mg/kg ([1]; 4 h, 4 h) | inhibition in vivo at 200 mg/kg ([1]; 5 h, 5 h) | inhibition in vivo at 300 mg/kg ([1]; 5 h, 5 h) | inhibition in vivo at 200 mg/kg ([1]; 6 h, 6 h) | inhibition in vivo at 300 mg/kg ([1]; 6 h, 6 h) | mortality at 336 h ([3]; 1000 mg/kg i.p.) | inhibition at 100 µM [5] | inhibition at 10 µM [5] | mortality at 336 h ([3]; 500 mg/kg i.p.) | other results
1 | COc1ccc(-c2cc(=O)c3c(O)cc(O[C@@H]4O[C@H](CO[C@@H]5O[C@@H](C)[C@H](O)[C@H]6OC(C)(C)O[C@@H]56)[C@@H](O)[C@H](O)[C@H]4O)cc3o2)cc1O [No. 32, 7-O-(2,3-O,O-isopropylidene-6-α-L-rhamnosyl-β-D-glucosyl)diosmitin] | 8% | 0% | 35% | 16% | 38% | 8% | 43% | 44% | 36% | 31% | 30% | 32% | 20% | 43% | 20% | 36% | 0% | – | – | – | inhibition in vivo at 150 mg/kg ([1]; 1/2 h): 5%; inhibition in vivo at 150 mg/kg ([1]; 1 h, 1 h 1/2): 37%; inhibition in vivo at 150 mg/kg ([1]; 1 h, 1 h): 17%; inhibition in vivo at 150 mg/kg ([1]; 2 h, 2 h): 49%; inhibition in vivo at 150 mg/kg ([1]; 3 h, 3 h): 43%; inhibition in vivo at 150 mg/kg ([1]; 4 h, 4 h): 42%; inhibition in vivo at 150 mg/kg ([1]; 5 h, 5 h): 37%; inhibition in vivo at 150 mg/kg ([1]; 6 h, 6 h): 34%; percentage reduction of capillary permeability ([2]; 10 mg/kg i.p.): 7%; percentage reduction of capillary permeability ([2]; 75 mg/kg i.p.): 32%
2 | CC1(C)OC[C@H]2O[C@@H](Oc3cc4ccc(=O)oc4cc3O)[C@H](O)[C@@H](O)[C@@H]2O1 [No. 15, 6-O-(4,6-O,O-isopropylidene-β-D-glucosyl) esculetol] | 18% | – | 20% | 26% | – | – | 13% | – | 1% | – | 7% | – | 10% | – | 17% | – | 0% | 60% | 9% | 10% | capillary resistance, effect observed ([4]; 25 mg/kg i.p.): 17 ± 11.8 u cm Hg/h; capillary resistance, effect observed ([4]; 50 mg/kg i.p.): 20 ± 12.9 u cm Hg/h; mortality at 336 h ([3]; 1500 mg/kg i.p.): 20%; mortality at 336 h ([3]; 2000 mg/kg i.p.): 70%; solubility [6]: 9200 µg/mL (≈ 24.2 mM)
3 | O=c1ccc2cc(O[C@@H]3O[C@@H]4COC5(CCCCC5)O[C@H]4[C@H](O)[C@H]3O)c(O)cc2o1 [No. 16, 6-O-(4,6-O,O-cyclohexylidene-β-D-glucosyl) esculetol] | 59% | – | 45% | 59% | – | – | 46% | – | 30% | – | 23% | – | 27% | – | 24% | – | 80% | 63% | 14% | 10% | capillary resistance, effect observed ([4]; 25 mg/kg i.p.): 8.8 ± 6.8 u cm Hg/h; capillary resistance, effect observed ([4]; 50 mg/kg i.p.): 23 ± 11.1 u cm Hg/h; mortality at 336 h ([3]; 750 mg/kg i.p.): 80%; solubility [6]: 1250 µg/mL (≈ 2.97 mM)
4 | C[C@@H]1O[C@@H](O[C@H]2[C@H](Oc3cc(O)c4c(c3)OC(c3ccc(O)cc3)CC4=O)O[C@H](CO)[C@@H](O)[C@@H]2O)[C@@H]2OC(C)(C)O[C@@H]2[C@H]1O (stereo partly drawn) [No. 8, 7-O-(2,3-O,O-isopropylidene-2-α-L-rhamnosyl-β-D-glucosyl)-naringenin] | 9% | 62% | 70% | 42% | 74% | 78% | 60% | 73% | 28% | 50% | 27% | 50% | 22% | 33% | 24% | 35% | 0% | 25% | 0% | 0% | inhibition in vivo at 100 mg/kg ([1]; 1/2 h): 23%; inhibition in vivo at 100 mg/kg ([1]; 1 h, 1 h 1/2): 85%; inhibition in vivo at 100 mg/kg ([1]; 1 h, 1 h): 64%; inhibition in vivo at 100 mg/kg ([1]; 2 h, 2 h): 75%; inhibition in vivo at 100 mg/kg ([1]; 3 h, 3 h): 48%; inhibition in vivo at 100 mg/kg ([1]; 4 h, 4 h): 48%; inhibition in vivo at 100 mg/kg ([1]; 5 h, 5 h): 35%; inhibition in vivo at 100 mg/kg ([1]; 6 h, 6 h): 37%; mortality at 336 h ([3]; 2000 mg/kg i.p.): 0%
